The values below come from US9034866B2 (Genentech, Inc., priority 2012, dated 2015).

The target in this assay is nuclear factor-kappa B (NF-kB)-inducing kinase (NIK) (Homo sapiens (Human), UniProt Q99558). Nature of the assay: NIK Enzyme Inhibition Assay (Transcreener ADP fluorescence polarization). The class given is biochemical. The following applies: read-out: NIK ADP-FP (Ki uM). The procedure, abridged: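 Baculovirus/insect-cell-expressed NIK (0.2-1 nM) incubated with compounds 1-3.5 h at 10 uM ATP. Buffer: 50 mM HEPES pH 7.2, 10 mM MgCl2, 2 mM DTT, 1% DMSO. ADP detected by Transcreener fluorescence polarization (ADP antibody, AlexaFluor 633 tracer) after EDTA quench.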
Chain of nuclear factor-kappa B (NF-kB)-inducing kinase (NIK) (Q99558 whole entry): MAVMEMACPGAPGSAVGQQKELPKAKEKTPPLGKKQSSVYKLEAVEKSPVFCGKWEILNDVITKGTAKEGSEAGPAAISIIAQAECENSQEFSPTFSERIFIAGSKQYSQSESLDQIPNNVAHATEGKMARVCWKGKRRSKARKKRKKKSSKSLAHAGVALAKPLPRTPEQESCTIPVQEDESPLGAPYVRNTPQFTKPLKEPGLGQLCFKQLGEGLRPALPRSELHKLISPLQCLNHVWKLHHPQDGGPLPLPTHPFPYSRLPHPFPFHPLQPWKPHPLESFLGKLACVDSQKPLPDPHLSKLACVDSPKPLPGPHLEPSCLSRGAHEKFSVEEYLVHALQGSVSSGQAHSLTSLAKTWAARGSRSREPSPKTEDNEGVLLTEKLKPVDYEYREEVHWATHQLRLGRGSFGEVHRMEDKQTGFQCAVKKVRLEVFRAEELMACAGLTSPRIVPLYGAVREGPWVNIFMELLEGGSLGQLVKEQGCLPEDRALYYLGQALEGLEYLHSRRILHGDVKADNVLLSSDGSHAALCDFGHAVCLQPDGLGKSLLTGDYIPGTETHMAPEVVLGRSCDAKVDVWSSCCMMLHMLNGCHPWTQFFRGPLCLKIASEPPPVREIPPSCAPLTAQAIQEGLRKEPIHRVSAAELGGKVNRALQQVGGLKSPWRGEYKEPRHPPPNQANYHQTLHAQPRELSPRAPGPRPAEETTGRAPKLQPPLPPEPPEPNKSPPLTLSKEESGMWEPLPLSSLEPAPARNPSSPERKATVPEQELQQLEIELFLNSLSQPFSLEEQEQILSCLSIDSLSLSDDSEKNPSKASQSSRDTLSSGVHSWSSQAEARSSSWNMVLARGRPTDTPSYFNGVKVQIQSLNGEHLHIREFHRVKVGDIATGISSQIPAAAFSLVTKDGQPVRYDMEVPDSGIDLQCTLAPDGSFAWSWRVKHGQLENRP
On the technique in general: Fluorescence polarisation rises when a labelled molecule tumbles more slowly, as on binding a larger partner.

Where [1] appears, read: purified NIK 0.2-1 nM, 10 uM ATP, Morrison's quadratic equation.

Each structure is given as a SMILES string. Like-named read-outs stand apart in the source and are kept apart here.

The Ki is a dissociation constant, usually derived from enzyme kinetics or from competition with a known ligand. Take `CC(O)(C#Cc1cc2c(cc1F)OCCc1sc(C(N)=O)nc1-2)c1ncn[nH]1` (stereo not shown) [Example 182, 8-fluoro-9-[3-hydroxy-3-(1H-1,2,4-tria-zol-5-yl)but-1-ynyl]-4,5-dihydro-[I]ben-zoxepino[5,4-d]thiazole-2-carboxamide]: under setting [1], the Ki was determined as 0.0021 µM.
The same measure, in the same setting: the figure for `NC(=O)c1cn2c(n1)-c1cc(C#CC3(O)CCCC3)ccc1C1CC2C1` [Example 37, 9-[2-(1-hydroxycyclopentyl)ethynyl]-2,5-diazatetra-cyclo[11.1.1.0^2,6.0^7,12]pen-tadeca-3,5,7,9,11-pentaene-4-carboxamide] is 0.003 µM.
Same read-out and setting: the value for `CN1CC[C@@](O)(C#Cc2ccc3c(c2)-n2nc(C(N)=O)cc2C2(CCC2)CO3)C1=O` [Example 717, (R)-9-((3-hydroxy-1-methyl-2-oxopyrro-lidin-3-yl)ethynyl)-5H-spiro[ben-zo[b]pyrazolo[1,5-d][1,4]oxazepine-4,1′-cyclobutane]-2-carboxamide] was 0.0005 µM.
For the compound `CC(O)(C#Cc1cc2c(cc1F)OCCn1cc(C(N)=O)nc1-2)c1cncnc1` (stereo not shown) [Example 18, 8-fluoro-9-(3-hydroxy-3-pyrimidin-5-yl-but-1-ynyl)-4,5-dihydro-6-oxa-1,3a-diaza-benzo[e]azulene-2-carboxylic acid amide], the Ki is above 5 µM.
For the compound `COCCN(C)Cc1c(C(N)=O)nc2n1C1CC(C1)c1cc(F)c(C#CC(C)(C)O)cc1-2` (racemic) [Example 239], the Ki under setting [1] turned out to be 0.23 µM.
On the same count and under the same terms, the figure for `Cn1cc(C(O)c2c(C(N)=O)nc3n2CCOc2cc(F)c(C#CC(C)(C)O)cc2-3)cn1` (stereo not shown) is 0.082 µM; for `CN1CC[C@@](O)(C#Cc2ccc3c(c2)-c2nc(C(N)=O)c(C(F)F)n2C2CC3C2)C1=O` [Example 664, 3-(difluoromethyl)-10-[2-[(3R)-3-hy-droxy-1-methyl-2-oxo-pyrrolidin-3-yl]ethy-nyl]-5,6,7,12-tetrahydro-5,7-methano-benzo[c]imidazo[1,2-a]azepine-2-carboxamide] it is 0.00078 µM; for `CC(O)(C#Cc1cc2c(cc1F)OCCn1cc(C(N)=O)nc1-2)c1ncc[nH]1` (racemic) it is 0.083 µM.
Still for that read-out and setting: the figure for `CC(=O)NC1COc2ccc(C#CC(C)(C)O)cc2-c2nc(C(N)=O)sc21` (stereo not shown) [Example 26, 4-acetylamino-9-(3-hydroxy-3-methyl-but-1-ynyl)-4,5-dihydro-6-oxa-3-thia-1-aza-benzo[e]azulene-2-carboxylic acid amide] is 0.21 µM; for `CN1CC[C@@](O)(C#Cc2ccc3c(c2)-n2nc(C(N)=O)cc2C2(COC2)CO3)C1=O` [Example 714, (R)-9-((3-hydroxy-1-methyl-2-oxopyrro-lidin-3-yl)ethynyl)-5H-spiro[ben-zo[b]pyrazolo[1,5-d][1,4]oxazepine-4,3′-oxetane]-2-carboxamide] it is 0.0033 µM.
`CC(C)(O)C#Cc1cc2c(cc1F)C1CC(C1)c1sc(C(N)=O)cc1-2` (racemic): under setting [1], the Ki amounted to 0.11 µM.
On the same count and under the same terms, the figure for `CC(C)(O)C#Cc1cc2c(cc1F)OCCn1c-2nc(C(N)=O)c1Cc1ccccc1F` [Example 25, 8-fluoro-3-(2-fluoro-benzyl)-9-(3-hydro-xy-3-methyl-but-1-ynyl)-4,5-dihydro-6-oxa-1,3a-diaza-benzol[e]azulene-2-car-boxylic acid amide] is 0.012 µM.
Turning to `CC(O)(C#Cc1cc2c(cc1F)OCCn1cc(C(N)=O)nc1-2)C(N)=O` (stereo not shown) [Example 52, 9-(3-carbamoyl-3-hydroxy-but-1-ynyl)-8-fluoro-4,5-dihydro-6-oxa-1,3a-diaza-benzo[e]azulene-2-carboxylic acid amide], the Ki under setting [1] was found to be 3.6 µM.
In the case of `CN1CC[C@](O)(C#Cc2ccc3c(c2)-c2nc(C(N)=O)c(C4CN(C(=O)C5CC5)C4)n2C2CC3C2)C1=O` (racemic), the Ki under setting [1] was above 1.2 µM.
Consider `CN1CC[C@@](O)(C#Cc2ccc3c(c2)-n2nc(C(N)=O)c(CO)c2CCO3)C1=O` [Example 720, (R)-9-((3-hydroxy-1-methyl-2-oxopyrro-lidin-3-yl)ethynyl)-3-(hydroxymethyl)-4,5-dihydrobenzo[b]pyrazolo[1,5-d][1,4]oxazepine-2-carboxamide], for which the Ki under setting [1] was determined as 0.001 µM.
With `CC(O)(C#Cc1cc2c(cc1F)OCCn1cc(C(N)=O)nc1-2)c1ncc(F)cn1` (stereo not shown), under setting [1], the Ki was found to be 4 µM.
`Cc1cccnc1C(C)(O)C#Cc1cc2c(cc1F)OCCn1cc(C(N)=O)nc1-2` (racemic) [Example 62]: under setting [1], the Ki is above 5 µM.
Take `CC(O)(C#Cc1cc2c(cc1F)OCCn1cc(C(N)=O)nc1-2)C1(C)CC1` (racemic) [Example 64]: the Ki under setting [1] is above 5 µM.
On the same count and under the same terms, the value for `CN(C)C(=O)CC1COc2ccc(C#CC(C)(C)O)cc2-c2nc(C(N)=O)sc21` (stereo not shown) [Example 43, 4-dimethylcarbamoylmethyl-9-(3-hydro-xy-3-methyl-but-1-ynyl)-4,5-dihydro-6-oxa-3-thia-1-aza-benzo[e]azulene-2-car-boxylic acid amide] was 0.403 µM.
Still for that read-out and setting: the figure for `CC(C)(O)C#Cc1ccc2c(c1)-c1nc(C(N)=O)sc1C(F)(F)CO2` [Example 27, 4,4-diriuoro-9-(3-hydroxy-3-methyl-but-1-ynyl)-4,5-dihydro-6-oxa-3-thia-1-aza-benzo[c]azulene-2-carboxylic acid amide] is 0.057 µM; for `CC(C)(C#Cc1ccc2c(c1)-c1nc(C(N)=O)cn1CCO2)CO` [Example 171] it is above 5 µM; for `CC(C)(O)C#Cc1ccc2c(c1)-c1nc(C(N)=O)c(CNC3COC3)n1CCO2` it is 0.00054 µM.
The same measure, in the same setting: the value for `CC(C)(O)C#Cc1cc2c(cc1F)C1CC(C1)n1c-2nc(C(N)=O)c1C(O)c1ccn[nH]1` (stereo not shown) [Example 309, 9-fluoro-10-(3-hydroxy-3-methyl-but-1-ynyl)-3-[hydroxy(1H-pyrazol-5-yl)meth-yl]-5,6,7,12-tetrahydro-5,7-methanoben-zo[c]imidazo[1,2-a]azepine-2-carboxamide] was 0.022 µM; that for `CC(O)(C#Cc1cc2c(cc1F)OCCc1sc(C(N)=O)nc1-2)CF` (stereo not shown) [Example 117, 8-fluoro-9-(4-fluoro-3-hydroxy-3-meth-yl-but-1-ynyl)-4,5-dihydro-6-oxa-3-thia-1-aza-benzo[e]azulene-2-carboxylic acid amide] was 0.005 µM.
For `CC(C)(O)C#Cc1ccc2c(c1)-c1nc(C(N)=O)sc1C(=O)CO2` [Example 9, 9-(3-hydroxy-3-methyl-but-1-ynyl)-4-oxo-4,5-dihydro-6-oxa-3-thia-1-aza-benzo-[e]azulene-2-carboxylic acid amide], the inhibitory constant (Ki) under setting [1] was 0.216 µM.
On to `CC12CCC(O)(C#Cc3ccc4c(c3)-c3nc(C(N)=O)cn3CCO4)C1O2` (stereo not shown) [Example 428], for which the Ki under setting [1] was above 1.2 µM.
On the same count and under the same terms, the figure for `CC(C)(O)C#Cc1ccc2c(c1)-c1nc(C(N)=O)c(CN3CCC(C#N)C3)n1CCO2` (stereo not shown) is 0.0019 µM; for `CC(C)(O)C#Cc1ccc2c(c1)-c1nc(C(N)=O)cn1CCO2` [Example 2, 9-(3-hydroxy-3-methyl-but-1-ynyl)-4,5-dihydro-6-oxa-1,3a-diaza-benzo[e]azu-lene-2-carboxylic acid amide] it is 0.319 µM; for `CNC(=O)c1c(C(N)=O)nc2n1CCOc1ccc(C#C[C@](C)(O)c3ccccn3)cc1-2` it is above 5 µM.
The same measure, in the same setting: the figure for `CNC(=O)c1c(C(N)=O)nc2n1C1CC(C1)c1cc(F)c(C#CC(C)(O)CO)cc1-2` (stereo not shown) is 0.01 µM; for `CN(C)Cc1c(C(N)=O)nc2n1C1CC(C1)c1cc(F)c(C#CC(C)(C)O)cc1-2` (racemic) it is 0.6 µM; for `CC(C)NCc1c(C(N)=O)nc2n1CCOc1ccc(C#CC(C)(C)O)cc1-2` it is 0.0042 µM.
The same measure, in the same setting: the figure for `Cc1cc(C(C)(O)C#Cc2cc3c(cc2Cl)OCCn2cc(C(N)=O)nc2-3)no1` (racemic) is above 5 µM; for `CN1CCCC(O)(C#Cc2cc3c(cc2F)OCCc2sc(C(N)=O)nc2-3)C1=O` (stereo not shown) it is 0.002 µM.
In the case of `CC(O)(C#Cc1cc2c(cc1F)OCCn1cc(C(N)=O)nc1-2)C(=O)N1CC(F)(F)C1` (racemic) [Example 156], the Ki under setting [1] worked out at 0.155 µM.
For `Cn1nccc1Cc1c(C(N)=O)nc2n1C1CC(C1)c1ccc(C#C[C@@](C)(O)c3ncccn3)cc1-2`, the Ki under setting [1] was 0.0013 µM.
In the case of `CN1CC[C@@](O)(C#Cc2cc3c(cc2F)OCC(F)(F)c2sc(C(N)=O)nc2-3)C1=O` [Example 641, 4,4,8-trifluoro-9-[2-[(3R)-3-hydroxy-1-methyl-2-oxo-pyrrolidin-3-yl]ethynyl]-5H-[1]benzoxepino[5,4-d]thiazole-2-carboxamide], the Ki under setting [1] is 0.0002 µM.
Take `Cc1nc(C(C)(O)C#Cc2cc3c(cc2F)OCCn2cc(C(N)=O)nc2-3)n[nH]1` (stereo not shown): the Ki under setting [1] was determined as 3.9 µM.
Still for that read-out and setting: the figure for `CC(O)(C#Cc1cc2c(cc1F)OCCn1cc(C(N)=O)nc1-2)c1cnccn1` (stereo not shown) [Example 15, 8-fluoro-9-(3-hydroxy-3-pyrazin-2-yl-but-1-ynyl)-4,5-dihydro-6-oxa-1,3a-diaza-benzo[e]azulene-2-carboxylic acid amide] is 0.036 µM; for `CC(O)(C#Cc1cc2c(cc1F)OCCn1cc(C(N)=O)nc1-2)c1c[nH]cn1` (stereo not shown) it is 0.001 µM; for `CC(C)(O)C#Cc1cc2c(cc1F)OCCn1c-2nc(C(N)=O)c1C(O)c1cc(F)cc(F)c1` (racemic) [Example 161] it is 0.0072 µM.
As for `CC(C)(O)C#Cc1ccc2c(c1)-c1nc(C(N)=O)sc1C(O)CO2` (stereo not shown) [Example 12, 4-hydroxy-9-(3-hydroxy-3-methyl-but-1-ynyl)-4,5-dihydro-6-oxa-3-thia-1-aza-benzo[e]azulene-2-carboxylic acid amide], the Ki under setting [1] was 0.093 µM.
On to `CC(C)(O)C#Cc1ccc2c(c1)-c1nc(C(N)=O)sc1C(N1CCOCC1)CO2` (stereo not shown) [Example 11, 9-(3-hydroxy-3-methyl-but-1-ynyl)-4-morpholin-4-yl-4,5-dihydro-6-oxa-3-thia-1-aza-benzo[e]azulene-2-carboxylic acid amide], for which the Ki under setting [1] is 0.416 µM.
